Patent US20010014444A1, “Gene regulator fusion proteins and methods of using the same for determining resistance of a protein to a drug targeted thereagainst” (priority 1998, published 2001)

How the values were obtained:
[1] = test system: HIV-PR variants expressing the resistance-conferring mutations V82T or I84V; assay: Colony color assay with site directed HIV-PR variants of known genotype; type: cell-based; conditions: plate with indinavir (MK-639) and Bluogal; only colonies with V82T or I84V variants were white; whiter with V82T and I84V than with V82T
Description: Site directed mutagensis was used to construct HIV-PR gene variants encoding the mutations 1) [D25E] […] These variant genes were put into fusion protein expression plasmids in the manner set forth in Example 1, and the resulting fusion protein expression plasmids and a β-galactosidase reporter plasmid expression were subcloned into E. coli, which were then plated on indicator media designed to report E. coli having HIV-PR activity as white colonies and E. coli without HIV-PR activity as blue colonies.
In the method of the present invention, β-galactosidase activity is regulated indirectly by activity of the HIV-PR in the fusion protein expression plasmid. All the E. coli cells used were identical and expressed similar HIV-PR-LacI fusion proteins, except that the HIV-PR genotype is different for different colonies.

[2] = test system: inactive HIV protease (164) [D25E] (pL448.2); assay: Blue/white colony color assay, HIV-PR-LacI fusion protein / β-galactosidase reporter two plasmid system; type: cell-based; conditions: E. coli containing pL448.2; Bluogal indicator media with arabinose inducer, supplemented with indinavir at various concentrations; also blue without indinavir
Description: Three E. coli strains, each containing a reporter plasmid for expression of β-galactosidase, and a HIV-PR-LacI expression plasmid for expression of a HIV-PR-LacI fusion protein, were tested using the blue/white color assay of the present invention. These strains were designed to be identical except for mutations within the HIV-PR regions, as set forth below:
Plasmid pL446.1 expresses a fusion protein containing HIV-PR and the LacI gene repressor. Expression is mediated by the ARAB promoter/operator and expression is induced by addition of arabinose sugar to the growth medium.
Media plates were prepared by adding to standard Luria Broth Agar, per liter of Luria Broth Agar, 2,000 μl of 100 mg/ml Ampicillin, 800 μl of 34 mg/ml Chloramrphenicol, 1 ml 1M IPTG. Similarly, indicator media was prepared by adding Bluogal (Life Technologies Inc.) to the media, 16.8 ml Bluogal stock (2% in dimethyl formamide) per liter of Luria Broth Agar. […] The E. coli strains were then plated onto the indicator media and allowed to grow for about 16 hours.

CC(C)(C)NC(=O)[C@@H]1CN(Cc2cccnc2)CCN1C[C@@H](O)C[C@@H](Cc1ccccc1)C(=O)N[C@H]1c2ccccc2C[C@H]1O [indinavir]
color of E. coli colonies on plate with indinavir and color indicator [1]: white
color of E. coli colonies on indicator media [2]: blue
